Assay: LogP by HPLC on reversed phase columns (EEC directive 79/831 Annex V.A8), method [a]
Assay type: physicochemical
Settings: LC-UV, acidic range, 0.1% formic acid in water and acetonitrile as eluent (linear gradient 10% to 95% acetonitrile)

Structure (SMILES)	LogP[a]
Cc1c(NC(=O)c2cccnc2C(F)F)cccc1OC(C)c1ccc(Cl)cc1Cl (stereo not drawn) [Example 115]	4.41
Cc1c(NC(=O)c2cccnc2C(F)F)cccc1OCc1ccccc1Cl [Example 37]	3.41
CC(C)Oc1cccc(NC(=O)c2cccnc2C(F)F)c1C(F)(F)F [Example 99]	2.80
O=C(Nc1cccc(-c2ccccc2Cl)c1Cl)c1cccnc1C(F)F [Example 7]	3.22
CCOc1cccc(NC(=O)c2cccnc2C(F)F)c1C [Example 118]	2.34
O=C(Nc1cccc(-c2ccc(Cl)cc2)c1Cl)c1cccnc1C(F)F [Example 9]	3.54
Cc1c(NC(=O)c2cccnc2C(F)F)cccc1OCC(F)(F)F [Example 119]	2.55
CCC(C)Oc1cccc(NC(=O)c2cccnc2C(F)F)c1C (stereo not drawn) [Example 11]	3.02
Cc1c(NC(=O)c2cccnc2C(F)F)cccc1OCc1cccc(C(F)(F)F)c1 [Example 38]	3.52
Cc1c(CCC(C)(C)C)cccc1NC(=O)c1cccnc1C(F)F [Example 74]	3.92
Cc1c(NC(=O)c2cccnc2C(F)F)cccc1S(=O)(=O)C1CCCC1 [Example 105]	2.21
Cc1c(NC(=O)c2cccnc2C(F)F)cccc1OC(C)c1c(F)cccc1F (stereo not drawn) [Example 52]	3.33
CCCC(CCC)Oc1cccc(NC(=O)c2cccnc2C(F)F)c1C [Example 12]	4.26
CCOCC(C)Oc1cccc(NC(=O)c2cccnc2C(F)F)c1C (stereo not drawn) [Example 20]	2.57
Cc1c(NC(=O)c2cccnc2C(F)F)cccc1OC(C)c1cccc(Cl)c1 (stereo not drawn) [Example 51]	3.63
Cc1c(NC(=O)c2cccnc2C(F)F)cccc1C1CCCCO1 (stereo not drawn) [Example 80]	2.53
CCCOCC(C)Oc1cccc(NC(=O)c2cccnc2C(F)F)c1C (stereo not drawn) [Example 22]	3.04
Cc1c(NC(=O)c2cccnc2C(F)F)cccc1OC(C)C(C)C (stereo not drawn) [Example 14]	3.41
Cc1c(NC(=O)c2cccnc2C(F)F)cccc1OCC=C(Cl)Cl [Example 76]	3.21
Cc1nc(C)c(-c2cccc(NC(=O)c3cccnc3C(F)F)c2C)s1 [Example 112]	1.98
Cc1c(NC(=O)c2cccnc2C(F)F)cccc1OCCc1ccc(Cl)cc1 [Example 66]	3.68
Cc1c(NC(=O)c2cccnc2C(F)F)cccc1OC1CCCC1 [Example 75]	3.21
Cc1c(NC(=O)c2cccnc2C(F)F)cccc1-c1csc(C(C)C)n1 [Example 114]	2.94
Cc1c(NC(=O)c2cccnc2C(F)F)cccc1C1CC2CCC1C2 (stereo not drawn) [Example 81]	3.80

Now from value to compound:

LogP[a]	Structure (SMILES)
3.55	Cc1c(NC(=O)c2cccnc2C(F)F)cccc1OCc1ccc(Br)cc1 [Example 19]
3.90	Cc1c(NC(=O)c2cccnc2C(F)F)cccc1OC(C)Cc1ccc(Cl)cc1 (stereo not drawn) [Example 67]
3.99	Cc1c(NC(=O)c2cccnc2C(F)F)cccc1OCc1ccc(Cl)cc1Cl [Example 46]
3.79	Cc1c(NC(=O)c2cccnc2C(F)F)cccc1OC(C)CC(C)C (stereo not drawn) [Example 15]
3.65	Cc1c(NC(=O)c2cccnc2C(F)F)cccc1OCCc1ccccc1Cl [Example 64]
3.11	O=C(Nc1cccc(-c2cc(F)ccc2F)c1Cl)c1cccnc1C(F)F [Example 2]
3.61	Cc1c(NC(=O)c2cccnc2C(F)F)cccc1OCCc1cccc(Cl)c1 [Example 65]
3.59	Cc1c(NC(=O)c2cccnc2C(F)F)cccc1OC(C)COc1ccccc1Cl (stereo not drawn) [Example 35]
3.74	Cc1ccccc1OCC(C)Oc1cccc(NC(=O)c2cccnc2C(F)F)c1C (stereo not drawn) [Example 32]
0.45	Cc1c(NC(=O)c2cccnc2C(F)F)cccc1N(C)C [Example 108]
3.06	Cc1c(NC(=O)c2cccnc2C(F)F)cccc1OC(C)C1(Cl)CC1 (stereo not drawn) [Example 25]

Same assay, conditions: reversed phase HPLC column; LC-UV, acidic range, 0.1% formic acid in water and acetonitrile as eluent (linear gradient 10% to 95% acetonitrile)

chromatographic logP	Structure (SMILES)
3.48	CCCC(C)Oc1cccc(NC(=O)c2cccnc2C(F)F)c1C (stereo not drawn) [Example 79, 2-(difluoromethyl)-N-[2-methyl-3-(pentan-2-yloxy)phenyl]nicotinamide]

— patent US20180057462A1, “Substituted 2-difluoromethyl-nicotin(thio)carboxanilide derivatives and their use as fungicides” (BAYER CROPSCIENCE AKTIENGESELLSCHAFT, priority 2015, published 2018)
